Details of series [1]: method as in PMID 28584140. The conditions noted are these: cited from earlier work.
Series [2] deals with type 1 methionyl-tRNA synthetase (MetRS). Also noted: method as in PMID 19258353, PMID 19251726. To be noted: cited from earlier work.
Series [3] is described as follows: Fecal (stool) pharmacokinetics, multiple-ascending-dose phase 1 study. To be noted: for Cstool,ss (concentration in stool) / fe,stool (fe,feces,ss, fraction of dose excreted unchanged in feces over 24 h): day 10, median (minimum, maximum); for fe,stool (fe,feces,ss, fraction of dose excreted unchanged in feces over 24 h): % in Table S4. The format is in vivo, human. As for the experimental part:
PK method development, validation, and sample testing for plasma, feces, and urine were performed at KCAS, LLC (Shawnee, KS). Plasma, urine, and fecal concentrations of CRS3123 were determined by means of validated, sensitive, and specific high-performance liquid chromatography/tandem mass spectrometric (HPLC-MS/MS) assays. The lower limits of quantification of CRS3123 in plasma, feces, and urine were 10.0 ng/ml, 60.0 ng/g, and 100.0 ng/ml, respectively. The validated urine PK assay measured total free CSR3123. Since the majority of urinary CRS3123 was excreted as glucuronide conjugates ([32]), an enzymatic cleavage step using glucuronidase was added to the process to convert the glucuronide conjugates to free CRS3123 for the urine analysis.
A selective, accurate, and reproducible analytical method using LC-MS/MS for the quantitation of CRS3123 in human fecal homogenate was linear over a range of 10.0 to 2000 ng/ml (fecal homogenate) or 60.0 to 12,000 ng/g (fecal material). Since 11 fecal samples collected on day 10 exceeded the upper limit, this method was amended by validating it for an extended range of 50.0 to 3,000 μg/ml (fecal homogenate) or […] (fecal material).
(iii) Fecal PK. Twenty-four-hour fecal collection was initiated for all subjects following dose 1 and dose 19 of study drug for measurement of CRS3123 concentrations in feces. A listing of individual PK fecal sample collection start and stop dates/times, fecal weight excreted for each planned collection, CRS3123 concentration in each fecal collection, and amount of CRS3123 excreted in each fecal collection was provided for each fecal collection for each treatment. The bioanalytical method was amended to allow for reanalysis of samples originally outside the linear range.
The following parameters were calculated from the fecal data: amount of unchanged drug excreted in feces (in nanograms) following doses 1 and 2 (Ae,feces) or doses 19 and 20 (Ae,feces,ss) calculated as fecal concentration × fecal weight (in the case of multiple fecal samples, Ae,feces and Ae,feces,ss were determined as the sum of the amount calculated in each fecal sample collected during the 24-h collection period), and fraction of dose excreted unchanged in feces (fe,feces,ss) over a 24-h interval after multiple dosing (expressed as a percentage), calculated as Ae,feces,ss divided by dose 19 plus dose 20.
Due to the 12-h dosing interval utilized in this study, fe,feces,ss was calculated only after multiple dosing on day 10, when CRS3123 would be expected to be at or near steady state. […] A subject listing of individual fecal PK parameters for each treatment was provided for day 1 and for day 10.

The nature of series [4]: Drug product stability (ICH Q1A(R2)). The series is classed as physicochemical. To be noted: 200-mg gelatin capsules, room temperature. From the text: CRS3123 was provided by Crestone, Inc., in the form of dihydrochloride salt (CRS3123.2HCl) and formulated into 200-mg gelatin capsules by SRI International (Palo Alto, CA). Drug product stability specifications were met beyond the study period [stable for at least 60 months storage at room temperature monitored according to ICH Guidance for Industry Q1A(R2) Stability Testing of New Substances and Products].

Values joined by “and” are separate entries in the source; they are usually repeats but may differ in a detail not shown here. Equal entries are not always repeated.

Regarding `O=c1cc(NCCCN[C@@H]2CCOc3c(Br)cc(Br)cc32)[nH]c2ccsc12` [CRS3123], in series [1], the “share of oral dose metabolized into glucuronide conjugates detectable in urine” value was “a small fraction”. The “systemic absorption following oral dosing” value in series [1] (preclinical testing and SAD study 100 mg to 1,200 mg) was “low systemic absorption”. In addition, the safety and tolerability result in series [1] (single oral doses 100 mg to 1,200 mg) is “safe and well tolerated”. Besides, the “inhibition of type 1 MetRS” value in series [2] was “potently inhibits”. In addition, the “Cstool,ss (concentration in stool)” value in series [3] (200 mg Q12h oral) is 2,115 μg/g and 2,115 (966, 4,430) μg/g; in series [3] (400 mg Q12h oral), 5,390 μg/g and 5,390 (2,920, 8,700) μg/g; in series [3] (600 mg Q12h oral), 8,280 μg/g and 8,280 (2,200, 14,000) μg/g. For the same molecule, the “fe,stool (fe,feces,ss, fraction of dose excreted unchanged in feces over 24 h)” value in series [3] (200 mg Q12h oral) was 24.9% and 24.9 (1.9, 68.8) %; in series [3] (400 mg Q12h oral), 52.0%; in series [3] (600 mg Q12h oral), 43.1% and 43.1 (11.0, 125.8) %. The concentrations in feces result in series [3] (all three doses tested) is “above 1,000 μg/g”. The “fecal concentrations relative to MIC90” value in series [3] (human, in vivo) is “substantially above the MIC90 value”. For the same molecule, the “drug product stability, storage time” value in series [4] is given as “at least 60 months”.

Values taken from paper PMC7187627 (Antimicrobial Agents and Chemotherapy, 2019).
